# Data published in PubChem BioAssay (NCI).
#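 Assay format: 96-well plates, 48-hour exposure. Here, GI50 denotes the concentration required for 50% inhibition of growth. TGI: concentration producing complete growth inhibition.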
# Tests used:
# Experiment in all cases: DTP human tumour cell line panel, 48 h
# [1] = test system: 786-0 renal
# [2] = test system: A498 renal
# [3] = test system: A549 NSCLC
# [4] = test system: ACHN renal
# [5] = test system: BT-549 breast
# [6] = test system: CAKI-1 renal
# [7] = test system: CCRF-CEM leukemia
# [8] = test system: COLO 205 colon
# [9] = test system: DU-145 prostate
# [10] = test system: HCC-2998 colon
# [11] = test system: HCT-116 colon
# [12] = test system: HCT-15 colon
# [13] = test system: HL-60(TB) leukemia
# [14] = test system: HOP-62 NSCLC
# [15] = test system: HOP-92 NSCLC
# [16] = test system: HT29 colon
# [17] = test system: IGROV1 ovarian
# [18] = test system: K-562 leukemia
# [19] = test system: KM12 colon
# [20] = test system: LOX IMVI melanoma
# [21] = test system: M14 melanoma
# [22] = test system: MALME-3M melanoma
# [23] = test system: MCF7 breast
# [24] = test system: MDA-MB-231 breast
# [25] = test system: MDA-MB-435
# [26] = test system: MOLT-4 leukemia
# [27] = test system: NCI-H226 lung
# [28] = test system: NCI-H23 lung
# [29] = test system: NCI-H460 lung
# [30] = test system: NCI-H522 lung
# [31] = test system: NCI/ADR-RES ovarian
# [32] = test system: OVCAR-3 ovarian
# [33] = test system: OVCAR-4 ovarian
# [34] = test system: OVCAR-5 ovarian
# [35] = test system: OVCAR-8 ovarian
# [36] = test system: PC-3 prostate
# [37] = test system: RPMI-8226 leukemia
# [38] = test system: RXF 393 renal
# [39] = test system: SF-268 CNS
# [40] = test system: SF-295 CNS
# [41] = test system: SF-539 CNS
# [42] = test system: SK-MEL-2 melanoma
# [43] = test system: SK-MEL-28 melanoma
# [44] = test system: SK-MEL-5 melanoma
# [45] = test system: SK-OV-3 ovarian
# [46] = test system: SN12C renal
# [47] = test system: SNB-19 CNS
# [48] = test system: SNB-75 CNS
# [49] = test system: SR leukemia
# [50] = test system: SW-620 colon
# [51] = test system: T-47D breast
# [52] = test system: U251 CNS
# [53] = test system: UACC-257 melanoma
# [54] = test system: UACC-62 melanoma
# [55] = test system: UO-31 renal
# [56] = test system: EKVX NSCLC
# [57] = test system: HS 578T breast
# [58] = test system: TK-10 renal
smiles,measurement,setting,value
O=C1Nc2ccccc2C12CC(c1ccccc1)=NN2 (stereo not given),GI50,[1],6.36 µM
same,TGI,[1],65.2 µM
same,GI50,[2],1.85 µM
same,TGI,[2],9.24 µM
same,GI50,[3],5.11 µM
same,TGI,[3],> 100 µM
same,GI50,[4],6.48 µM
same,TGI,[4],> 100 µM
same,GI50,[5],6.35 µM
same,TGI,[5],> 100 µM
same,GI50,[6],7.57 µM
same,TGI,[6],> 100 µM
same,GI50,[7],5.52 µM
same,TGI,[7],> 100 µM
same,GI50,[8],4.62 µM
same,TGI,[8],25.9 µM
same,GI50,[9],9.63 µM
same,TGI,[9],51.1 µM
same,GI50,[10],36.1 µM
same,TGI,[10],> 100 µM
same,GI50,[11],4.83 µM
same,TGI,[11],> 100 µM
same,GI50,[12],4.17 µM
same,TGI,[12],> 100 µM
same,GI50,[13],3.29 µM
same,TGI,[13],15.3 µM
same,GI50,[14],8.79 µM
same,TGI,[14],> 100 µM
same,GI50,[15],1.65 µM
same,TGI,[15],9.43 µM
same,GI50,[16],3.73 µM
same,TGI,[16],27.5 µM
same,GI50,[17],5.75 µM
same,TGI,[17],75.9 µM
same,GI50,[18],3.98 µM
same,TGI,[18],> 100 µM
same,GI50,[19],4.76 µM
same,TGI,[19],> 100 µM
same,GI50,[20],6.46 µM
same,TGI,[20],87.4 µM
same,GI50,[21],4.9 µM
same,TGI,[21],46.3 µM
same,GI50,[22],3.89 µM
same,TGI,[22],> 100 µM
same,GI50,[23],3.72 µM
same,TGI,[23],> 100 µM
same,GI50,[24],8.61 µM
same,TGI,[24],79.7 µM
same,GI50,[25],1.66 µM
same,TGI,[25],4.5 µM
same,GI50,[26],8.41 µM
same,TGI,[26],> 100 µM
same,GI50,[27],21.9 µM
same,TGI,[27],> 100 µM
same,GI50,[28],9.07 µM
same,TGI,[28],> 100 µM
same,GI50,[29],3.94 µM
same,TGI,[29],> 100 µM
same,GI50,[30],4.66 µM
same,TGI,[30],76 µM
same,GI50,[31],7.49 µM
same,TGI,[31],> 100 µM
same,GI50,[32],5.1 µM
same,TGI,[32],80.7 µM
same,GI50,[33],23.6 µM
same,TGI,[33],> 100 µM
same,GI50,[34],16.4 µM
same,TGI,[34],96.1 µM
same,GI50,[35],9.28 µM
same,TGI,[35],96.9 µM
same,GI50,[36],3.89 µM
same,TGI,[36],> 100 µM
same,GI50,[37],5.53 µM
same,TGI,[37],90.5 µM
same,GI50,[38],3.78 µM
same,TGI,[38],36.6 µM
same,GI50,[39],11.9 µM
same,TGI,[39],> 100 µM
same,GI50,[40],4.84 µM
same,TGI,[40],> 100 µM
same,GI50,[41],3.4 µM
same,TGI,[41],15 µM
same,GI50,[42],5.46 µM
same,TGI,[42],46.5 µM
same,GI50,[43],15.7 µM
same,TGI,[43],> 100 µM
same,GI50,[44],4.81 µM
same,TGI,[44],> 100 µM
same,GI50,[45],9.12 µM
same,TGI,[45],> 100 µM
same,GI50,[46],7.73 µM
same,TGI,[46],> 100 µM
same,GI50,[47],12.7 µM
same,TGI,[47],> 100 µM
same,GI50,[48],2.98 µM
same,TGI,[48],59.4 µM
same,GI50,[49],3.64 µM
same,TGI,[49],34.8 µM
same,GI50,[50],3.75 µM
same,TGI,[50],> 100 µM
same,GI50,[51],6.98 µM
same,TGI,[51],> 100 µM
same,GI50,[52],5.4 µM
same,TGI,[52],> 100 µM
same,GI50,[53],5.02 µM
same,TGI,[53],> 100 µM
same,GI50,[54],4.38 µM
same,TGI,[54],> 100 µM
same,GI50,[55],14.6 µM
same,TGI,[55],> 100 µM
Cc1c(N2C(=O)/C(=C\c3ccc(O)cc3)N=C2c2ccccc2)c(=O)n(-c2ccccc2)n1C,GI50,[1],> 100 µM
same,TGI,[1],> 100 µM
same,GI50,[2],> 100 µM
same,TGI,[2],> 100 µM
same,GI50,[3],> 100 µM
same,TGI,[3],> 100 µM
same,GI50,[4],> 100 µM
same,TGI,[4],> 100 µM
same,GI50,[6],> 100 µM
same,TGI,[6],> 100 µM
same,GI50,[8],> 100 µM
same,TGI,[8],> 100 µM
same,GI50,[9],> 100 µM
same,TGI,[9],> 100 µM
same,GI50,[56],> 100 µM
same,TGI,[56],> 100 µM
same,GI50,[10],> 100 µM
same,TGI,[10],> 100 µM
same,GI50,[11],> 100 µM
same,TGI,[11],> 100 µM
same,GI50,[12],> 100 µM
same,TGI,[12],> 100 µM
same,GI50,[13],> 100 µM
same,TGI,[13],> 100 µM
same,GI50,[14],> 100 µM
same,TGI,[14],> 100 µM
same,GI50,[15],> 100 µM
same,TGI,[15],> 100 µM
same,GI50,[57],> 100 µM
same,TGI,[57],> 100 µM
same,GI50,[16],> 100 µM
same,TGI,[16],> 100 µM
same,GI50,[17],> 100 µM
same,TGI,[17],> 100 µM
same,GI50,[18],> 100 µM
same,TGI,[18],> 100 µM
same,GI50,[19],> 100 µM
same,TGI,[19],> 100 µM
same,GI50,[20],> 100 µM
same,TGI,[20],> 100 µM
same,GI50,[21],> 100 µM
same,TGI,[21],> 100 µM
same,GI50,[22],> 100 µM
same,TGI,[22],> 100 µM
same,GI50,[23],> 100 µM
same,TGI,[23],> 100 µM
same,GI50,[24],> 100 µM
same,TGI,[24],> 100 µM
same,GI50,[25],> 100 µM
same,TGI,[25],> 100 µM
same,GI50,[26],> 100 µM
same,TGI,[26],> 100 µM
same,GI50,[27],> 100 µM
same,TGI,[27],> 100 µM
same,GI50,[28],> 100 µM
same,TGI,[28],> 100 µM
same,GI50,[29],> 100 µM
same,TGI,[29],> 100 µM
same,GI50,[30],> 100 µM
same,TGI,[30],> 100 µM
same,GI50,[31],> 100 µM
same,TGI,[31],> 100 µM
same,GI50,[32],> 100 µM
same,TGI,[32],> 100 µM
same,GI50,[33],> 100 µM
same,TGI,[33],> 100 µM
same,GI50,[34],> 100 µM
same,TGI,[34],> 100 µM
same,GI50,[35],> 100 µM
same,TGI,[35],> 100 µM
same,GI50,[36],> 100 µM
same,TGI,[36],> 100 µM
same,GI50,[37],> 100 µM
same,TGI,[37],> 100 µM
same,GI50,[38],> 100 µM
same,TGI,[38],> 100 µM
same,GI50,[39],> 100 µM
same,TGI,[39],> 100 µM
same,GI50,[40],> 100 µM
same,TGI,[40],> 100 µM
same,GI50,[41],> 100 µM
same,TGI,[41],> 100 µM
same,GI50,[42],> 100 µM
same,TGI,[42],> 100 µM
same,GI50,[43],> 100 µM
same,TGI,[43],> 100 µM
same,GI50,[44],> 100 µM
same,TGI,[44],> 100 µM
same,GI50,[45],> 100 µM
same,TGI,[45],> 100 µM
same,GI50,[46],> 100 µM
same,TGI,[46],> 100 µM
same,GI50,[47],> 100 µM
same,TGI,[47],> 100 µM
same,GI50,[48],> 100 µM
same,TGI,[48],> 100 µM
same,GI50,[50],> 100 µM
same,TGI,[50],> 100 µM
same,GI50,[51],> 100 µM
same,TGI,[51],> 100 µM
same,GI50,[58],> 100 µM
same,TGI,[58],> 100 µM
same,GI50,[52],> 100 µM
same,TGI,[52],> 100 µM
same,GI50,[53],> 100 µM
same,TGI,[53],> 100 µM
same,GI50,[54],> 100 µM
same,TGI,[54],> 100 µM
same,GI50,[55],> 100 µM
same,TGI,[55],> 100 µM
